Counter-ions that a name gives are not always drawn.
Test system: Acinetobacter baumannii ATCC17961
Experiment: Antimicrobial susceptibility testing: 90% growth inhibitory concentration (IC90) determination in Iso-Sensitest broth, OD600 growth
Assay type: cell-based
Conditions: Acinetobacter baumannii, ATCC17961, 16 h, read-out: A. baumannii ATCC 17961 IC90 (uM), strain ATCC 17961, OD600 growth over 16 h
How it was run: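 Growth inhibition is calculated during the logarithmic phase from OD600 readings taken every 20 minutes across 16 h at 35±2° C. Bacteria at ~5×10^(5) CFU/ml face twofold dilution series (e.g. 50 to 0.097 μM final).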

SMILES	IC90
NCCCNC(=O)CN1CCN(C(=O)c2ccc(Nc3nccn4c(-c5cn(CC(F)F)nc5C(F)(F)F)cnc34)cc2Cl)CC1 [Example 606, N-(3-aminopropyl)-2-(4-(2-chloro-4-((3-(1-(2,2-difluoroethyl)-3-(trifluoromethyl)-1H-pyrazol-4-yl)imidazo[1,2-a]pyrazin-8-yl)amino)benzoyl)piperazin-1-yl)acetamide formate]	0.303 µM
CCc1cc(Nc2nccn3c(-c4cn(CC#N)nc4C(F)(F)F)cnc23)ccc1C(=O)NCC(=O)NC1C2CNCC21 (stereo not drawn) [Example 511, N-[2-(3-azabicyclo[3.1.0]hexan-6-ylamino)-2-oxo-ethyl]-4-[[3-[1-(cyanomethyl)-3-(trifluoromethyl)pyrazol-4-yl]imidazo[1,2-a]pyrazin-8-yl]amino]-2-ethyl-benzamide formate]	0.295 µM
CCc1cc(Nc2nccn3c(-c4cn(CC(F)F)nc4C(F)(F)F)cnc23)ccc1C(=O)N1CC(N)C1 [Example 556, (3-aminoazetidin-1-yl)(4-((3-(1-(2,2-difluoroethyl)-3-(trifluoromethyl)-1H-pyrazol-4-yl)imidazo[1,2-a]pyrazin-8-yl)amino)-2-ethylphenyl)methanone formate]	0.675 µM
CCc1cc(Nc2nccn3c(-c4cn(CC#N)nc4C(F)(F)F)cnc23)ccc1C(=O)NCC(=O)N[C@H]1CCNC1 [Example 758, 4-[[3-[1-(cyanomethyl)-3-(trifluoromethyl)pyrazol-4-yl]imidazo[1,2-a]pyrazin-8-yl]amino]-2-ethyl-N-[2-oxo-2-[[(3S)-pyrrolidin-3-yl]amino]ethyl]benzamide formate]	0.693 µM
N#CCn1cc(-c2cnc3c(Nc4ccc(C(=O)N5CCN(C(=O)[C@@H]6CC[C@@H](N)C6)CC5)c(Cl)c4)nccn23)c(C(F)(F)F)n1 [Example 573, 2-(4-(8-((4-(4-((1R,3R)-3-aminocyclopentane-1-carbonyl)piperazine-1-carbonyl)-3-chlorophenyl)amino)imidazo[1,2-a]pyrazin-3-yl)-3-(trifluoromethyl)-1H-pyrazol-1-yl)acetonitrile formate]	0.169 µM
N#CCn1cc(-c2cnc3c(Nc4ccc(C(=O)N5CCN(CC(=O)NC6CNC6)CC5)c(Cl)c4)nccn23)c(C(F)(F)F)n1 [Example 604, N-(azetidin-3-yl)-2-(4-(2-chloro-4-((3-(1-(cyanomethyl)-3-(trifluoromethyl)-1H-pyrazol-4-yl)imidazo[1,2-a]pyrazin-8-yl)amino)benzoyl)piperazin-1-yl)acetamide formate]	0.602 µM
NCCOCCNC(=O)c1ccc(Nc2nccn3c(-c4cn(CC(F)F)nc4C(F)(F)F)cnc23)cc1F [Example 809, N-(2-(2-aminoethoxy)ethyl)-4-((3-(1-(2,2-difluoroethyl)-3-(trifluoromethyl)-1H-pyrazol-4-yl)imidazo[1,2-a]pyrazin-8-yl)amino)-2-fluorobenzamidei hydrochloride]	0.17 µM
C[C@H](NC(=O)c1ccc(Nc2nccn3c(-c4c[nH]nc4C(F)(F)F)cnc23)cc1Cl)C(=O)N1CCC(N)CC1 [Example 126, N-[(2S)-1-(4-aminopiperidin-1-yl)-1-oxopropan-2-yl]-2-chloro-4-[[3-[3-(trifluoromethyl)-1H-pyrazol-4-yl]imidazo[1,2-a]pyrazin-8-yl]amino]benzamide formate]	4.15 µM
CCc1cc(Nc2nccn3c(-c4cn(CC(F)F)nc4C(F)(F)F)cnc23)ccc1C(=O)NCC(=O)N1CCCC(N)C1 (stereo not drawn) [Example 544, N-[2-(3-amino-1-piperidyl)-2-oxo-ethyl]-4-[[3-[1-(2,2-difluoroethyl)-3-(trifluoromethyl)pyrazol-4-yl]imidazo[1,2-a]pyrazin-8-yl]amino]-2-ethyl-benzamide formate]	0.232 µM
CCc1cc(Nc2nccn3c(-c4cn(CC(F)F)nc4C(F)(F)F)cnc23)ccc1C(=O)N1CCC2(CNC2)C1 [Example 555, (4-((3-(1-(2,2-difluoroethyl)-3-(trifluoromethyl)-1H-pyrazol-4-yl)imidazo[1,2-a]pyrazin-8-yl)amino)-2-ethylphenyl)(2,6-diazaspiro[3.4]octan-6-yl)methanone formate]	0.977 µM
C=C(Cl)Cn1cc(-c2cnc3c(Nc4ccc(C(=O)NCCOCCN)c(CC)c4)nccn23)c(C(F)(F)F)n1 [Example 274, N-[2-(2-aminoethoxy)ethyl]-4-[[3-[1-(2-chloroprop-2-enyl)-3-(trifluoromethyl)pyrazol-4-yl]imidazo[1,2-a]pyrazin-8-yl]amino]-2-ethylbenzamide formate]	0.101 µM

Same assay, conditions: Acinetobacter baumannii, ATCC17961, 16 h, strain ATCC 17961, OD600 growth over 16 h, read-out: A. baumannii ATCC 17961 IC90

SMILES	IC90
N[C@@H]1CC[C@H](C(=O)N2CCN(C(=O)c3ccc(Nc4nccn5c(-c6cn(CC7CC7)nc6C(F)(F)F)cnc45)cc3F)CC2)C1 [Example 808, (4-((1S,3R)-3-aminocyclo-pentane-1-carbonyl)piperazin-1-yl)(4-((3-(1-(cyclopropyl-methyl)-3-(trifluoromethyl)-1H-pyrazol-4-yl)imidazo[1,2-a]pyrazin-8-yl)amino)-2-fluorophenyl) methanone hydrochloride]	0.26 µM
O=C(NC1CN(C(=O)c2ccc(Nc3nccn4c(-c5c[nH]nc5C(F)(F)F)cnc34)cc2Cl)C1)N[C@@H]1CCNC1 [Example 168, 1-[1-[2-chloro-4-[[3-[3-(trifluoromethyl)-1H-pyrazol-4-yl]imidazo[1,2-a]pyrazin-8-yl]amino]benzoyl]azetidin-3-yl]-3-[(3R)-pyrrolidin-3-yl]urea]	0.369 µM
Cc1cc(Nc2nccn3c(-c4cn(CC(F)F)nc4C(F)(F)F)cnc23)cc(F)c1C(=O)N1CCN(C(=O)[C@H]2C[C@@H](N)C2)CC1 [Example 701, (4-((1s,3s)-3-aminocyclobutane-1-carbonyl)piperazin-1-yl)(4-((3-(1-(2,2-difluoroethyl)-3-(trifluoromethyl)-1H-pyrazol-4-yl)imidazo[1,2-a]pyrazin-8-yl)amino)-2-fluoro-6-methylphenyl)methanone]	0.382 µM
CCc1cc(Nc2nccn3c(-c4cn(CC#N)nc4C(F)(F)F)cnc23)ccc1C(=O)NCC(=O)N1CCC(N)CC1 [Example 500, N-[2-(4-amino-1-piperidyl)-2-oxo-ethyl]-4-[[3-[1-(cyanomethyl)-3-(trifluoromethyl)pyrazol-4-yl]imidazo[1,2-a]pyrazin-8-yl]amino]-2-ethyl-benzamide formate]	0.222 µM
CCc1cc(Nc2nccn3c(-c4c[nH]nc4C(F)(F)F)cnc23)ccc1C(=O)NCCOC[C@H](C)N [Example 203, N-[2-[(2S)-2-aminopropoxy]ethyl]-2-ethyl-4-[[3-[3-(trifluoromethyl)-1H-pyrazol-4-yl]imidazo[1,2-a]pyrazin-8-yl]amino]benzamide]	0.102 µM
CN(CCN)C(=O)c1ccc(Nc2nccn3c(-c4c[nH]nc4C(F)(F)F)cnc23)cc1Cl [Example 322, N-(2-aminoethyl)-2-chloro-N-methyl-4-[[3-[3-(trifluoromethyl)-1H-pyrazol-4-yl]imidazo[1,2-a]pyrazin-8-yl]amino]benzamide]	0.97 µM
O=C(c1ccc(Nc2nccn3c(-c4cn(CC(F)F)nc4C(F)(F)F)cnc23)cc1Cl)N1CCNCC1 [Example 120, [2-chloro-4-[[3-[1-(2,2-difluoroethyl)-3-(trifluoromethyl)pyrazol-4-yl]imidazo[1,2-a]pyrazin-8-yl]amino]phenyl]-piperazin-1-ylmethanone]	0.109 µM
CCc1cc(Nc2nccn3c(-c4cn(CC(F)F)nc4C(F)(F)F)cnc23)ccc1C(=O)NCC(=O)N1CC(N)C1 [Example 733, N-[2-(3-aminoazetidin-1-yl)-2-oxo-ethyl]-4-[[3-[1-(2,2-difluoroethyl)-3-(trifluoromethyl)pyrazol-4-yl]imidazo[1,2-a]pyrazin-8-yl]amino]-2-ethyl-benzamide]	0.481 µM
CCc1cc(Nc2nccn3c(-c4cn(CCF)nc4C(F)F)cnc23)ccc1C(=O)N1CCN(C(=O)[C@@H](C)N)CC1 [Example 796, (R)-2-amino-1-(4-(4-((3-(3-(difluoromethyl)-1-(2-fluoroethyl)-1H-pyrazol-4-yl)imidazo[1,2-a]pyrazin-8-yl)amino)-2-ethylbenzoyl)piperazin-1-yl)propan-1-one]	2.25 µM
C=CCn1cc(-c2cnc3c(Nc4cc(C)c(C(=O)N5CCNCC5)c(F)c4)nccn23)c(C(F)(F)F)n1 [Example 69, [2-fluoro-6-methyl-4-[[3-[1-prop-2-enyl-3-(trifluoromethyl)pyrazol-4-yl]imidazo[1,2-a]pyrazin-8-yl]amino]phenyl]-piperazin-1-ylmethanone]	0.433 µM
O=C(NC1CCN(C(=O)c2ccc(Nc3nccn4c(-c5c[nH]nc5C(F)(F)F)cnc34)cc2Cl)CC1)C1CCNCC1 [Example 157, N-[1-[2-chloro-4-[[3-[3-(trifluoromethyl)-1H-pyrazol-4-yl]imidazo[1,2-a]pyrazin-8-yl]amino]benzoyl]piperidin-4-yl]piperidine-4-carboxamide]	0.969 µM

Same assay, conditions: strain ATCC 17961, OD600 growth over 16 h, read-out: A. baumannii ATCC 17961 IC90

SMILES	IC90
C[C@H](NC(=O)c1ccc(Nc2nccn3c(-c4c[nH]nc4C(F)(F)F)cnc23)cc1Cl)C(=O)N1CCNCC1 [Example 140, 2-chloro-N-[(2S)-1-oxo-1-piperazin-1-ylpropan-2-yl]-4-[[3-[3-(trifluoromethyl)-1H-pyrazol-4-yl]imidazo[1,2-a]pyrazin-8-ylamino]benzamide formate]	3.31 µM
N#CCn1cc(-c2cnc3c(Nc4ccc(C(=O)N5CCN(C(=O)NC6CNC6)CC5)c(Cl)c4)nccn23)c(C(F)(F)F)n1 [Example 214, N-(azetidin-3-yl)-4-[2-chloro-4-[[3-[1-(cyanomethyl)-3-(trifluoromethyl)pyrazol-4-yl]imidazo[1,2-a]pyrazin-8-yl]amino]benzoyl] piperazine-1-carboxamide formate]	0.349 µM
